In publication PMC5851003 (ACS nano, 2018):

Key:
[1] = molecular target: CXCR-4 receptor (Homo sapiens, UniProt P61073); format: binding; settings: A549 cells
[2] = molecular target: human α4β2 nicotinic acetylcholine receptor (nAChR) (Homo sapiens, UniProt P17787+P43681); format: binding; settings: SH-EP1-α4β2 cells
human α4β2 nicotinic acetylcholine receptor (nAChR), sequence (P43681 29-627 limits assumed): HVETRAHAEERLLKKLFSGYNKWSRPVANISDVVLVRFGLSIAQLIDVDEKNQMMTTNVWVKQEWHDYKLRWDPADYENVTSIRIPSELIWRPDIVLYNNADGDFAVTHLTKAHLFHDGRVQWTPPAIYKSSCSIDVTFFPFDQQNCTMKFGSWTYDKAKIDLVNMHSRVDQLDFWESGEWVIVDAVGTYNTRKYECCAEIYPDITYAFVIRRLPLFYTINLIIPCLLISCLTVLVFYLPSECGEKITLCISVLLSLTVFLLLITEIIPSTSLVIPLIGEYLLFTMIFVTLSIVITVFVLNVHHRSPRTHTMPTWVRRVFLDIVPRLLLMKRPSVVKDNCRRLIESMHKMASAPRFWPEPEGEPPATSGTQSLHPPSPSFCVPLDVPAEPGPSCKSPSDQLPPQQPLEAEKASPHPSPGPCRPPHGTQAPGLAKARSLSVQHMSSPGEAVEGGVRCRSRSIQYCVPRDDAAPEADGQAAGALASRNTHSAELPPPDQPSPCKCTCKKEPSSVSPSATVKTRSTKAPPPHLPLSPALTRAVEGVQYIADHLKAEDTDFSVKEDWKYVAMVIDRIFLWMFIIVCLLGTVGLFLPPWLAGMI
human α4β2 nicotinic acetylcholine receptor (nAChR), sequence (P17787 26-502): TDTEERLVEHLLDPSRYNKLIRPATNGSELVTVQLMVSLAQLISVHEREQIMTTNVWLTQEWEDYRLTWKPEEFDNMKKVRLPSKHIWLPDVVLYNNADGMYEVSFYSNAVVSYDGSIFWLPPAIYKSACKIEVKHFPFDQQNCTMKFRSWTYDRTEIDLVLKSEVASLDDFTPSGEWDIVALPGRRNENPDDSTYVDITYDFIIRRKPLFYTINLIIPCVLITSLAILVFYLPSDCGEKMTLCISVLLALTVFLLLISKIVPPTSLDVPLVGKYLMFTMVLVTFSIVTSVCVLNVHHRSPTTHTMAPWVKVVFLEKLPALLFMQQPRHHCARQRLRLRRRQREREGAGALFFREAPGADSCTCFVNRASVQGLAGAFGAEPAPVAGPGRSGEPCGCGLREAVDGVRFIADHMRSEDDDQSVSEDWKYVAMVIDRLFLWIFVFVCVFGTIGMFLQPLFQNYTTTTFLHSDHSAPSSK

CXCR-4 receptor, sequence (P61073 whole entry): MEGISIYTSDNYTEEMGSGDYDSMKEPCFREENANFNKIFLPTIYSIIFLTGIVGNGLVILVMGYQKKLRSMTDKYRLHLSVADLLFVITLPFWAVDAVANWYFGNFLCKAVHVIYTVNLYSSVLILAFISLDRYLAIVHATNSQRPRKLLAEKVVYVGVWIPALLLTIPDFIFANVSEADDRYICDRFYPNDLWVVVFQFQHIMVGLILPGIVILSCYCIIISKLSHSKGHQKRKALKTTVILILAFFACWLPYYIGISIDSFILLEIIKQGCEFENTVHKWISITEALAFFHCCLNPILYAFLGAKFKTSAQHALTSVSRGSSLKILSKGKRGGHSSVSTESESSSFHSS

Row | binding induced membrane deformation, maximum value [1] [nm] | Compound | maximum membrane deformation [2]
1 | 46 | c1cc(CN2CCCNCCNCCCNCC2)ccc1CN1CCCNCCNCCCNCC1 [AMD3100] | 
2 |  | CC(=O)OCC[N+](C)(C)C [acetylcholine] | around 70 nm
